For one compound, IC50 results are on record in BindingDB's records for doi:10.1021/acs.jnatprod.0c00921 (Bc Cancer, 2021).

The nature of the assay: Inhibition of R1881-stimulated AR transcription driven human LNCaP cells proliferation preincubated for 1 hr followed by R1881 addition and measured after 4 days by Alamar blue assay. On the technique in general: Alamar Blue is a resazurin reagent that responds to reducing activity.

By IC50 is commonly meant the midpoint of a concentration-inhibition curve. The low end stands for greater potency in that assay, the high end for weaker potency in that assay.

With `CCC(=O)N[C@H](C[C@H](C)C(Cl)(Cl)Cl)C(=O)N1C(=O)C=C(OC)[C@@H]1C[C@H](C)C(Cl)Cl`, the IC50 came out at 14 µM.
